# Measured values as given in US20110305911A1, “ARTICLE HAVING ANTIFOULING PROPERTIES AND INTENDED TO BE USED IN AQUATIC APPLICATIONS, PARTICULARLY MARINE APPLICATIONS” (BLUESTAR SILICONES FRANCE, priority 2008, published 2011).
# Experiment: Solubility of the catalyst
# Assay type: physicochemical
# Details: ambient temperature (25° C.)
smiles,measurement,value
"CC(C)C/C(=C/C(=O)C(C)(C)C)[O][Zn][O]/C(=C\C(=O)C(C)(C)C)CC(C)C [Catalyst (6), zinc bis(2,2,7-trimethyl-3,5-octanedionate)]",solubility,"soluble in organic solvents, even in alkanes, and in silicone oils"
